In experiment [1] the target is T1, human TLR8 (Homo sapiens, UniProt Q9NR97).
T1 construct: host or cells: HEK-Blue cells
T1 sequence (Q9NR97 27-1041): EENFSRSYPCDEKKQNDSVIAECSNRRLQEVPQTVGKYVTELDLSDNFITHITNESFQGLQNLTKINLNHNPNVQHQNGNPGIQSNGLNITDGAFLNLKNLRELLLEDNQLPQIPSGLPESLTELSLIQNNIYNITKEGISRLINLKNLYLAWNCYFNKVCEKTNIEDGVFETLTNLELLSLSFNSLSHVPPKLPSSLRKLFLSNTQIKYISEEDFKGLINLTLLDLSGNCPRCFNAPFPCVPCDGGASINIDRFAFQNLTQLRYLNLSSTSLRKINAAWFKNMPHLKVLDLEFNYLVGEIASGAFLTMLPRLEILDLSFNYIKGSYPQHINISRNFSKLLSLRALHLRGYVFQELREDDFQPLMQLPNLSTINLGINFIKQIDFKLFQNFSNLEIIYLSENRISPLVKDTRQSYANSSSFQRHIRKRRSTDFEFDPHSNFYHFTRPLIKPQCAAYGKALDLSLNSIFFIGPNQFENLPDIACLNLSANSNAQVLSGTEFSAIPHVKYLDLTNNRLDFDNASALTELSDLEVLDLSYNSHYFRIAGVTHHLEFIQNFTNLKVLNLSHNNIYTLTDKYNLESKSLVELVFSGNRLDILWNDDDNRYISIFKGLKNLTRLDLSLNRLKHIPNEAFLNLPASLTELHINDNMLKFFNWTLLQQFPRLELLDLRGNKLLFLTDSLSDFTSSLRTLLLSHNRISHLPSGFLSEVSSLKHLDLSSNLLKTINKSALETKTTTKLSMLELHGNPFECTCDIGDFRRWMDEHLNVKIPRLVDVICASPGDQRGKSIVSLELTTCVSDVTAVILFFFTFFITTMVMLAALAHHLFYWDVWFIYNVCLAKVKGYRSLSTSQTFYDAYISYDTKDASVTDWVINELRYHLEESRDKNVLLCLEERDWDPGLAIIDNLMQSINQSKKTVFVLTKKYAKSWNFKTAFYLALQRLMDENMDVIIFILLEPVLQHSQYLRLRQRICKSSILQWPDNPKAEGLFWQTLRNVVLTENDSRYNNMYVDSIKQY
The experiment can be described thus: TLR8 inhibition reporter assay (HEK-Blue cells, SEAP reporter, R848 stimulation). It is filed as cell-based. Conditions: HEK-Blue cells overexpressing human TLR8, R848 15.9 μM. The method in brief: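 Cells (15000/well for TLR7, 20,000 for TLR8) were treated with compounds over 0.05 nM-50 μM final. After 22 h at 37° C, 5% CO2, SEAP was measured with HEK-Blue Detection reagent; percent inhibition was taken as reduction of agonist-plus-DMSO signal relative to a known inhibitor.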
In general terms: A reporter such as luciferase makes a cellular process visible.

Experiment [2] deals with T2, human TLR9 (Homo sapiens, UniProt Q9NR96).
T2 construct: host or cells: HEK-Blue cells
T2 sequence (Q9NR96 26-1032): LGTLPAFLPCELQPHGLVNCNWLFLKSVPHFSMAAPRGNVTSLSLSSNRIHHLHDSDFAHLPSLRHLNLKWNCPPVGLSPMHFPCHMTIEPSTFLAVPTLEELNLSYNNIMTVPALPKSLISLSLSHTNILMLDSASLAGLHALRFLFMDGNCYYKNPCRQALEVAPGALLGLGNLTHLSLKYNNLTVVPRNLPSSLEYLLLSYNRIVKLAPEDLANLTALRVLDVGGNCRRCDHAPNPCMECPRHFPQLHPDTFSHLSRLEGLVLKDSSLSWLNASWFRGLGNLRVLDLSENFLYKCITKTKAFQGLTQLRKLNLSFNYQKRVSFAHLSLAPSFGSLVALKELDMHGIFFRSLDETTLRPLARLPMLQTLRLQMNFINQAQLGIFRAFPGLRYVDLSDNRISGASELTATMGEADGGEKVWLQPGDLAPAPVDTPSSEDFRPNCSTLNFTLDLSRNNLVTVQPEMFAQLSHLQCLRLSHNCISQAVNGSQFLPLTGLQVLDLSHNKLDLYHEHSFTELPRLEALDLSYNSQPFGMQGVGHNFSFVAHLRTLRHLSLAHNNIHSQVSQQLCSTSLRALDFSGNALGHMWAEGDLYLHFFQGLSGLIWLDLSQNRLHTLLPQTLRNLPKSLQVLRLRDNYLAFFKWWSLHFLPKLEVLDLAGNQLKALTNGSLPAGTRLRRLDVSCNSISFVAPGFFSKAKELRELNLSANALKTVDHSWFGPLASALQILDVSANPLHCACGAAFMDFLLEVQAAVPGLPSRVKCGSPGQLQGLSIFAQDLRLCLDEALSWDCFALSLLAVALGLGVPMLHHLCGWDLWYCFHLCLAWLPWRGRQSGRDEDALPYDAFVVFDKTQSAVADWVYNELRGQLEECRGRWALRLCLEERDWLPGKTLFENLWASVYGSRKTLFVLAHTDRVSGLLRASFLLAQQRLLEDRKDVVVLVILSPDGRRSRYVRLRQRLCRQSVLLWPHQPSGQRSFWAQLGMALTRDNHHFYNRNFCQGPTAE
The experiment is described as follows: TLR9 inhibition reporter assay (HEK-Blue cells, SEAP reporter, ODN2006 stimulation). In kind it is cell-based. Conditions: HEK-Blue cells overexpressing human TLR9, ODN2006 5 nM. In a few lines: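 Human TLR7/8/9 HEK-Blue reporter lines; dose range 0.05 nM–50 μM; 30 min RT preincubation; stimulus gardiquimod 7.5 μM / R848 15.9 μM / ODN2006 5 nM respectively; 22 h, 37 °C; SEAP detected colorimetrically.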

`COc1ccc(-c2[nH]c3ccc(C4CCN(C5CCN(Cc6cccs6)CC5)CC4)cc3c2C)cc1OC` [Example 64, 2-(3,4-dimethoxyphenyl)-3-methyl-5-(1′-(thiophen-2-ylmethyl)-[1,4′-bipiperidin]-4-yl)-1H-indole]: the results for the IC50 in experiment [1] and in experiment [2] were 195 nM and 112 nM, respectively.

For `COc1ccc(-c2[nH]c3ccc(C4CCN(C5CCN(CC6CCCCC6)CC5)CC4)cc3c2C)cc1OC` [Example 58, 5-(1′-(cyclohexylmethyl)-[1,4′-bipiperidin]-4-yl)-2-(3,4-dimethoxyphenyl)-3-methyl-1H-indole], the IC50 in experiment [1] came to 258 nM; in experiment [2], 86 nM.

By IC50 is commonly meant the midpoint of a concentration-inhibition curve. A lower IC50 goes with inhibition by little substance.

The record behind these values is patent US11180474B2 (BRISTOL-MYERS SQUIBB COMPANY, priority 2016, dated 2021).
